Data published in ChEMBL document CHEMBL1201862, “PubChem BioAssay data set” (2004).
Active and inactive are the calls of the source.

Tests used:
Streptokinase A = target: T1, Streptokinase A (Streptococcus pyogenes serotype M1, UniProt P10520); test: viability-normalized secreted streptokinase activity reduction – plasminogen activation absorbance, OD405, dose response (AID 1914); type: functional, Streptococcus pyogenes M1 GAS;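 further: secreted streptokinase activity via plasminogen activation per viability signal from cell pellet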
T1 sequence (P10520 whole entry): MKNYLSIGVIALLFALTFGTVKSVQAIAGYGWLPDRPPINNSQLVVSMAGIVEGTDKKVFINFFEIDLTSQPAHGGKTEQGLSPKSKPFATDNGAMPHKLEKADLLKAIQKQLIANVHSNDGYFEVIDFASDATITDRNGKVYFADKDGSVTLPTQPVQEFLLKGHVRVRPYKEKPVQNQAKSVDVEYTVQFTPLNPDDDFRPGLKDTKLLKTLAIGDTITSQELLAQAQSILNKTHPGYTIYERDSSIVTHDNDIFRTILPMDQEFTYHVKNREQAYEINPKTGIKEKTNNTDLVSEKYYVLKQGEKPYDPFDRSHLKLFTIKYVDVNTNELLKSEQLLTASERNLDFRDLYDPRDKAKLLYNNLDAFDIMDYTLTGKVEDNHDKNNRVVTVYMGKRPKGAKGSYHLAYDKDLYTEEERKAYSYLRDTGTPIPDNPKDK

[1] = MIN6 cell viability loss – mouse insulinoma, cytotoxicity control, dose response (AID 2122); type: functional;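 further: confirmatory high-throughput counterscreen run to flag cytotoxic compounds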
Streptococcus = test: GAS UMAA2166 growth inhibition – luminescence, BacTiterGlo, counter-screen for streptokinase expression inhibitor project, dose response (AID 1915); type: functional, organism-based;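 further: potency for reduction of bacterial viability or growth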
[2] = test system: Streptococcus sp. 'group A'; test: Streptococcus pyogenes SK(-)GAS viability under kanamycin – luminescence, BacTiterGlo, confirmation, counter-screen for streptokinase expression inhibitor project, dose response (AID 1900); type: functional, organism-based
[3] = decrease of insulin promoter-GFP reporter – imaging, high-content screening, mouse beta cells (AID 1628); type: functional; conditions: MIN6
Cytochrome P450 2D6 = Cytochrome P450 2D6 (Homo sapiens, UniProt P10635);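 further: CYP2D6 member of a cytochrome P450 panel assay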
Cytochrome P450 2C9 = Cytochrome P450 2C9 (Homo sapiens, UniProt P11712)
Cytochrome P450 2C19 = Cytochrome P450 2C19 (Homo sapiens, UniProt P33261); test: Cytochrome panel assay with activity outcomes. Panel member name: p450-cyp2c19 Compounds with AC50 equal or less than 10 uM are considered active; type: functional; conditions: read-out: AC50
[4] = target: T2, E3 ubiquitin-protein ligase XIAP (Homo sapiens, UniProt P98170); test: small molecules displacing peptide from XIAP – biochemical, IAP family, fluorescence polarization (AID 1018); type: functional
[5] = target: T2, E3 ubiquitin-protein ligase XIAP; test: Counter Screen using XIAP-Bir3 for Chemical Antagonists of Bir1/2 domains of IAP-family anti-apoptotic proteins. [Related pubchem assays (depositor defined):AID1018, AID1449, AID1514, AID1638, AID1749, AID1750, AID488957, AID488963]
[6] = luciferase reporter signal suppression in cells – H4 neuroglioma cells, luminescence, dose response (AID 1990); type: functional, cell-based
[7] = Luminescence Cell-Based Dose Response HTS to Identify Inhibitors of 5'UTR Stem-Loop Driven Prion Protein mRNA Translation in H4 Neuroglioblastoma Cells. [Related pubchem assays: 1827 (Project Summary), 1813 (Primary HTS)]; type: functional
[8] = Luminescence Cell-Based Dose Retest to Confirm Inhibitors of Cancer Stem Cells. [Related pubchem assays (depositor defined):AID2717, AID2721]; type: functional; conditions: Homo sapiens
[9] = alpha-synuclein stem-loop luciferase translation blockers – H4 neuroglioma cells, luminescence, confirmation (AID 1988); type: functional, cell-based
cells [10] = type: functional, cell-based
[11] = target: Disintegrin and metalloproteinase domain-containing protein 17 (Homo sapiens, UniProt P78536); test: exosite inhibitors of ADAM17, dose response, biochemical (AID 743260)
cells [12] = type: functional, cell-based; remark: listed apart in the source
[13] = inhibition of ADAM10 peptide cleavage – biochemical, FRET peptide substrate, recombinant human ADAM10, selectivity assay for ADAM17 exosite inhibitor project, dose response (AID 743259);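 further: ADAM10 enzyme cleaving a FRET peptide substrate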
Cytochrome P450 3A4 = Cytochrome P450 3A4 (Homo sapiens, UniProt P08684);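 further: CYP3A4 tested as one member of a cytochrome P450 panel screen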
Chain of Cytochrome P450 3A4 (P08684 whole entry): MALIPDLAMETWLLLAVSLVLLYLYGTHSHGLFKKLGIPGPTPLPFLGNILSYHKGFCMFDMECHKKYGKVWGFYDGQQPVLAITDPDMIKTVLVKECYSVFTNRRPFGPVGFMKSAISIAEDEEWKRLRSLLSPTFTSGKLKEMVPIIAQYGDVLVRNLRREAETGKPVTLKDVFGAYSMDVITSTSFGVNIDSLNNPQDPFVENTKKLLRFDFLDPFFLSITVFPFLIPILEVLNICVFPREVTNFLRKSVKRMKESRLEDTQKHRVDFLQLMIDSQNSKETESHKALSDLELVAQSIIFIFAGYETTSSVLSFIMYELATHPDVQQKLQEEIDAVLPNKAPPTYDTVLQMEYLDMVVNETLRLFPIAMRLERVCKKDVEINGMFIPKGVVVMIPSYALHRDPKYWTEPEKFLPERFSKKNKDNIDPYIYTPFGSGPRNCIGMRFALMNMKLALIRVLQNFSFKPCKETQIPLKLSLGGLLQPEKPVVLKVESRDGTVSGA

T2 sequence (P98170 whole entry): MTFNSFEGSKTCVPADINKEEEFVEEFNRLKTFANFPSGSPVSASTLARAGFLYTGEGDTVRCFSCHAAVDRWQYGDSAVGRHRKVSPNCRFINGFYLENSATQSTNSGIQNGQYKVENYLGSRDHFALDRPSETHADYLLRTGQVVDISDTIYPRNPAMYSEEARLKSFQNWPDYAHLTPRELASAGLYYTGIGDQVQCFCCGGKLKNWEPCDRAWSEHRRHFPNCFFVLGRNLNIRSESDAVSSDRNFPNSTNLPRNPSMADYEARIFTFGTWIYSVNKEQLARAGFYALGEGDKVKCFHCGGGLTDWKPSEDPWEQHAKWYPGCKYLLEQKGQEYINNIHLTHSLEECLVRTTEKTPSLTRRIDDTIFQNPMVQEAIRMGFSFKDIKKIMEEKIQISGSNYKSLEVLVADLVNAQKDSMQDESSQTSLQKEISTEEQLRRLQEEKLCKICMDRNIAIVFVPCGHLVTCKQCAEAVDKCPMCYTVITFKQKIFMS
Chain of Cytochrome P450 2C9 (P11712 whole entry): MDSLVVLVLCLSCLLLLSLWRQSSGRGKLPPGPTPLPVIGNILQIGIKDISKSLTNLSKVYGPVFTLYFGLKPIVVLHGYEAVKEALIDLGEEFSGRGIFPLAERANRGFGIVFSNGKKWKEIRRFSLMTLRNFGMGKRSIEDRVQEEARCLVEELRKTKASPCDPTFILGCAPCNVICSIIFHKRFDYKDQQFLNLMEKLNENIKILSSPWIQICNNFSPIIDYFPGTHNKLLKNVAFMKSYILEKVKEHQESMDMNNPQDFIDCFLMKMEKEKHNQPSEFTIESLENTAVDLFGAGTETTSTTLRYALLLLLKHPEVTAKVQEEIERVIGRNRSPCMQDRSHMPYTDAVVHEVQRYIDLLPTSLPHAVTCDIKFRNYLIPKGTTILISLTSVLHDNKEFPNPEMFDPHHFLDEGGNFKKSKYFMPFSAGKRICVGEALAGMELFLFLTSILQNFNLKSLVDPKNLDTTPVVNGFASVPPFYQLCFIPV
Chain of Cytochrome P450 2D6 (P10635 whole entry): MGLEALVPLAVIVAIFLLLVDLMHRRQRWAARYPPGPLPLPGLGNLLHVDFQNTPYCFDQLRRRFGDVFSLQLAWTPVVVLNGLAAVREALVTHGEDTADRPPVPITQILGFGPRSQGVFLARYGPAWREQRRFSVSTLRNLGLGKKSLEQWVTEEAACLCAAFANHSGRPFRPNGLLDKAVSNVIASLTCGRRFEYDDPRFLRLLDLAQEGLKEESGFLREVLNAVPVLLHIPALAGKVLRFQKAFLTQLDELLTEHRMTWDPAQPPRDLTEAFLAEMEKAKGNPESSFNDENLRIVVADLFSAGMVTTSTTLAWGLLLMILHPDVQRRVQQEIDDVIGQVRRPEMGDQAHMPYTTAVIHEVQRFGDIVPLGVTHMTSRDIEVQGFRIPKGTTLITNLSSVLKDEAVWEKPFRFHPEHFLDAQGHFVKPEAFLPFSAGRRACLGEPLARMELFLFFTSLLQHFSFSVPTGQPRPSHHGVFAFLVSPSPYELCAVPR
Chain of Disintegrin and metalloproteinase domain-containing protein 17 (P78536 whole entry, the tested form may be a part): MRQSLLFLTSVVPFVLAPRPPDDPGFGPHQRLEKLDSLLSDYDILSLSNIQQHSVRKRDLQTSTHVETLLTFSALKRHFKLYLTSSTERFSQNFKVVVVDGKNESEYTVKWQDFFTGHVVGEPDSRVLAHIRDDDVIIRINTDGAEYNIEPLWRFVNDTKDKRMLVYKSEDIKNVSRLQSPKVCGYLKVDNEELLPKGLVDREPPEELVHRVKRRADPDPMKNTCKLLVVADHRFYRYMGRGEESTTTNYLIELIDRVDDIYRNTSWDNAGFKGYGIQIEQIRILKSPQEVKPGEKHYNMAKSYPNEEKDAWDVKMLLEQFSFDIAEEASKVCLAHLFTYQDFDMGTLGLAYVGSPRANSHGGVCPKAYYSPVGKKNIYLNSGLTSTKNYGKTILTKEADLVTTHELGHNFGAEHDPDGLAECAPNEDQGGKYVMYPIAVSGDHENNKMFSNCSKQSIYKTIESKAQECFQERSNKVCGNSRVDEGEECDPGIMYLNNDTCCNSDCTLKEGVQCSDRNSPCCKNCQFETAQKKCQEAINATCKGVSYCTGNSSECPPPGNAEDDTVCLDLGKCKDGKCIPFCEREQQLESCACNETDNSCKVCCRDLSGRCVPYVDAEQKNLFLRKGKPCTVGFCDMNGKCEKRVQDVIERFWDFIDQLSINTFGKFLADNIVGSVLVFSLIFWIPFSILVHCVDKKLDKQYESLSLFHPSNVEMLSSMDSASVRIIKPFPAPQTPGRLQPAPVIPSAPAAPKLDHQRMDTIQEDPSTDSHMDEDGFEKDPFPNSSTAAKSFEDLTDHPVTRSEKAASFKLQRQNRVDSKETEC
Chain of Cytochrome P450 2C19 (P33261 whole entry): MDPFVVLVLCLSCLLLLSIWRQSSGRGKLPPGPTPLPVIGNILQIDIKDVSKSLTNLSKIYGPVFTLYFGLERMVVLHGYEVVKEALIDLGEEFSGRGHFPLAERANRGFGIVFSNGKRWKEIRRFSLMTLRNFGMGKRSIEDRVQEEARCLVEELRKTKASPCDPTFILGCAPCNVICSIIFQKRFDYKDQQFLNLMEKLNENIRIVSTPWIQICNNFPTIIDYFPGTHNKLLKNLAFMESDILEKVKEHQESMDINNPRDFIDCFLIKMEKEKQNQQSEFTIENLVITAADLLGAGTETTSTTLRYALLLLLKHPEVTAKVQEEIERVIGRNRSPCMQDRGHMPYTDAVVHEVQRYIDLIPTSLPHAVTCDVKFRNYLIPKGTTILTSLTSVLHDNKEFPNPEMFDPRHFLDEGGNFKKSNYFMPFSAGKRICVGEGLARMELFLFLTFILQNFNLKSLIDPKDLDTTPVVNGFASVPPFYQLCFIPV

Cc1coc2c1C(=O)C(=O)c1c-2ccc2c(C)cccc12 [TANSHINONE I]
EC50 (Streptokinase A): > 150 µM (not active) | IC50 [1]: 2.8 µM (active) | EC50 (Streptococcus): 7.63 µM (active) | EC50 [2]: 4.65 µM (active) | IC50 [3]: 3.91 µM (active)

CCOC(=O)c1ccc(NC(=O)C(=O)NCC2CCCO2)cc1 (stereo not given)
AC50 (Cytochrome P450 2D6): inconclusive | AC50 (Cytochrome P450 2C9): 25.1 µM (inconclusive) | AC50 (Cytochrome P450 2C19): 31.6 µM (inconclusive)

O=C(COC(=O)C(Cc1ccccc1)NC(=O)c1ccco1)NC1CC1 (stereo not given)
IC50 [4]: > 100 µM (not active) | IC50 [5]: > 100 µM (inactive)

O=C(NC(CSCc1ccccc1)C(=O)N/N=C/c1ccc(O)cc1O)c1ccc([N+](=O)[O-])cc1 (stereo not given)
EC50 [6]: 6.53 µM (inconclusive) | IC50 [1]: 3.07 µM (active) | EC50 [7]: 10.9 µM (active) | AC50 [8]: 3 µM (active) | IC50 [3]: 2.19 µM (active) | EC50 [9]: 5.27 µM (active) | EC50 (cells [10]): > 350 µM (not active) | IC50 [11]: > 69.5 µM (inactive) | EC50 (cells [12]): 9.52 µM (active) | IC50 [13]: > 69.5 µM (inactive)

CCOC(=O)N1CCC(=NNC(=O)c2ccccc2F)CC1
IC50 [4]: > 100 µM (not active) | IC50 [5]: > 100 µM (inactive)

c1ccc2cc(Sc3ncnc4c3oc3ccccc34)ccc2c1
AC50 (Cytochrome P450 3A4): inconclusive

CSc1nc2nc3c(c(O)n2n1)CN(Cc1ccccc1)CC3
AC50 (Cytochrome P450 3A4): inconclusive | AC50 (Cytochrome P450 2C9): 15.8 µM (inconclusive)
